Assay results taken from patent US11304949B2, “Treatment of hidradenitis suppurativa using JAK inhibitors” (Incyte Corporation, priority 2018, dated 2022).

Key:
[1] = biological target: human JAK1 (a.a. 837-1142) (Homo sapiens, UniProt P23458); assay: In vitro JAK kinase assay (HTRF), JAK1; assay type: biochemical; conditions: 1 mM ATP
[2] = test system: human JAK1 (a.a. 837-1142); assay: In vitro JAK kinase assay (HTRF), JAK1; assay type: biochemical; conditions: IC50 ratio at 1 mM ATP
[3] = test system: Transformed human keratinocyte (HaCaT) cells stimulated with TNFα and IFNγ; assay: JAK inhibitors in TNFα/IFNγ stimulated keratinocytes, gene expression (QuantiGene Plex); conditions: 24 hours, normalized to HPRT1, mean ± standard error
[4] = test system: Transformed human keratinocyte (HaCaT) cells stimulated with TNFα and IFNγ; assay: JAK inhibitors in TNFα/IFNγ stimulated keratinocytes, inflammatory mediators in media (ProCarta Multiplex Immunoassay); conditions: mean ± 1 standard error
[5] = TNFα (25 ng/mL) and IFNγ (25 ng/mL), drug 25 nM
[6] = TNFα (25 ng/mL) and IFNγ (25 ng/mL), drug 50 nM
[7] = TNFα (25 ng/mL) and IFNγ (25 ng/mL), drug 100 nM
[8] = TNFα (25 ng/mL) and IFNγ (25 ng/mL), drug 200 nM
[9] = TNFα (25 ng/mL) and IFNγ (25 ng/mL) stimulation, drug 25 nM
[10] = TNFα (25 ng/mL) and IFNγ (25 ng/mL) stimulation, drug 50 nM
[11] = TNFα (25 ng/mL) and IFNγ (25 ng/mL) stimulation, drug 100 nM
[12] = TNFα (25 ng/mL) and IFNγ (25 ng/mL) stimulation, drug 200 nM

Structure (SMILES): C[C@@H](O)c1nc2cnc3ccsc3c2n1[C@H]1CC[C@H](CC#N)OC1 [Compound 5, ((2R,5S)-5-{2-[(1R)-1-hydroxyethyl]-1H-imidazo[4,5-d]thieno[3,2-b]pyridin-1-yl}tetrahydro-2H-pyran-2-yl)acetonitrile]
- IC50 [1]: < 100 nM
- JAK2/JAK1 [2]: >10
- IL-1α MFI [3, 5]: 1269.66 ± 50.59
- IL-6 MFI [3, 5]: 132.28 ± 7.41
- JAK1 MFI [3, 5]: 200.4 ± 9.84
- JAK2 MFI [3, 5]: 108.89 ± 3.25
- JAK3 MFI [3, 5]: 0.97 ± 0.18
- STAT1 MFI [3, 5]: 3164.74 ± 242.35
- STAT3 MFI [3, 5]: 1572.76 ± 65.5
- STAT4 MFI [3, 5]: 5.4 ± 0.45
- STAT5A MFI [3, 5]: 20.12 ± 1.29
- STAT6 MFI [3, 5]: 1042.76 ± 29.23
- TYK2 MFI [3, 5]: 283.93 ± 8.16
- IL-1α MFI [3, 6]: 1336.95 ± 50.97
- IL-6 MFI [3, 6]: 137.61 ± 5.87
- JAK1 MFI [3, 6]: 210.52 ± 7.73
- JAK2 MFI [3, 6]: 106.83 ± 5.94
- JAK3 MFI [3, 6]: 0.99 ± 0.20
- STAT1 MFI [3, 6]: 3017.08 ± 167.96
- STAT3 MFI [3, 6]: 1543.4 ± 58.65
- STAT4 MFI [3, 6]: 6.1 ± 0.36
- STAT5A MFI [3, 6]: 22.69 ± 1.71
- STAT6 MFI [3, 6]: 1046.46 ± 29.12
- TYK2 MFI [3, 6]: 307.36 ± 14.87
- IL-1α MFI [3, 7]: 1244.96 ± 41.03
- IL-6 MFI [3, 7]: 122.46 ± 5.35
- JAK1 MFI [3, 7]: 200.25 ± 8.15
- JAK2 MFI [3, 7]: 102.64 ± 3.52
- JAK3 MFI [3, 7]: 1.01 ± 0.17
- STAT1 MFI [3, 7]: 2999.87 ± 197.86
- STAT3 MFI [3, 7]: 1549.17 ± 89.41
- STAT4 MFI [3, 7]: 5.83 ± 0.34
- STAT5A MFI [3, 7]: 19.54 ± 1.34
- STAT6 MFI [3, 7]: 985.1 ± 39.79
- TYK2 MFI [3, 7]: 280.63 ± 10.46
- IL-1α MFI [3, 8]: 1163.14 ± 26.71
- IL-6 MFI [3, 8]: 119.49 ± 4.42
- JAK1 MFI [3, 8]: 190.53 ± 7.68
- JAK2 MFI [3, 8]: 92.21 ± 2.9
- JAK3 MFI [3, 8]: 0.86 ± 0.16
- STAT1 MFI [3, 8]: 3161.66 ± 135.8
- STAT3 MFI [3, 8]: 1570.19 ± 51.51
- STAT4 MFI [3, 8]: 5.42 ± 0.52
- STAT5A MFI [3, 8]: 18.33 ± 1.83
- STAT6 MFI [3, 8]: 1013.25 ± 17.15
- TYK2 MFI [3, 8]: 283.28 ± 10.88
- IL-1α MFI ([3]; no stimulation, drug 200 nM): 92.67 ± 5.54
- IL-6 MFI ([3]; no stimulation, drug 200 nM): 5.15 ± 0.31
- JAK1 MFI ([3]; no stimulation, drug 200 nM): 177.97 ± 14.91
- JAK2 MFI ([3]; no stimulation, drug 200 nM): 25.67 ± 1.03
- JAK3 MFI ([3]; no stimulation, drug 200 nM): 0.71 ± 0.15
- STAT1 MFI ([3]; no stimulation, drug 200 nM): 554.64 ± 11.36
- STAT3 MFI ([3]; no stimulation, drug 200 nM): 750.90 ± 27.68
- STAT4 MFI ([3]; no stimulation, drug 200 nM): 4.32 ± 0.53
- STAT5A MFI ([3]; no stimulation, drug 200 nM): 1.99 ± 0.51
- STAT6 MFI ([3]; no stimulation, drug 200 nM): 777.03 ± 29.31
- TYK2 MFI ([3]; no stimulation, drug 200 nM): 220.78 ± 12.01
- IL-1α concentration in media [4, 9]: 6.8 ± 0.39 pg/mL
- IL-6 concentration in media [4, 9]: 743.07 ± 36.3 pg/mL
- IP-10/CXCL10 concentration in media [4, 9]: 3903.67 ± 366.97 pg/mL
- MIP1α concentration in media [4, 9]: 102.06 ± 4.18 pg/mL
- RANTES concentration in media [4, 9]: 237.57 ± 17.46 pg/mL
- IL-1α concentration in media [4, 10]: 6.76 ± 0.4 pg/mL
- IL-6 concentration in media [4, 10]: 698.04 ± 29.79 pg/mL
- IP-10/CXCL10 concentration in media [4, 10]: 3998.62 ± 456.34 pg/mL
- MIP1α concentration in media [4, 10]: 96.35 ± 3.57 pg/mL
- RANTES concentration in media [4, 10]: 237.55 ± 21.78 pg/mL
- IL-1α concentration in media [4, 11]: 6.92 ± 0.4 pg/mL
- IL-6 concentration in media [4, 11]: 703.99 ± 42.22 pg/mL
- IP-10/CXCL10 concentration in media [4, 11]: 4100.26 ± 502.48 pg/mL
- MIP1α concentration in media [4, 11]: 96.22 ± 3.58 pg/mL
- RANTES concentration in media [4, 11]: 241.39 ± 22.79 pg/mL
- IL-1α concentration in media [4, 12]: 6.3 ± 0.35 pg/mL
- IL-6 concentration in media [4, 12]: 646.2 ± 32.46 pg/mL
- IP-10/CXCL10 concentration in media [4, 12]: 4407.56 ± 645.63 pg/mL
- MIP1α concentration in media [4, 12]: 88.49 ± 5.06 pg/mL
- RANTES concentration in media [4, 12]: 238.51 ± 23.12 pg/mL
- IL-1α concentration in media ([4]; no stimulation, drug 200 nM): 0.31 ± 0.04 pg/mL
- IL-6 concentration in media ([4]; no stimulation, drug 200 nM): 28.84 ± 1.89 pg/mL
- IP-10/CXCL10 concentration in media ([4]; no stimulation, drug 200 nM): 20.39 ± 0.57 pg/mL
- MIP1α concentration in media ([4]; no stimulation, drug 200 nM): 3.11 ± 0.28 pg/mL
- RANTES concentration in media ([4]; no stimulation, drug 200 nM): 9.51 ± 0.56 pg/mL
